Patent US8192989B2, “Solid surface for biomolecule delivery and high-throughput assay” (Nitto Denko Corporation, priority 2003, dated 2012)

Legend:
293 cells [1] = test: Cytotoxicity assay - MTT assay after transfection; type: cell-based
Protocol: Glutamine (100 mmol/L) and different transfection reagents (NDT-CP-B-1, NDT-CP-1, Superfect and lipofectamine 2000) were diluted in 0.2% gelatin solution, and 25 μl of the solution containing Glutamine/transfection reagent/gelatin was added into a 96 well plate and allowed to air dry. Then 25 μl GFP plasmid solution in opti MEM (20.0 μg/ml) was added into each well and incubated at room temperature for 25 min. The dried plate was ready for use (FIG. 32).
In this experiment, 0.2% gelatin or 0.2% gelatin and 40.0 μg/ml laminin mixture was used for diluting transfection reagents NDT-CP-B-1, NDT-CP-1, NDT-LP-1 NDT-LP-2, Superfect and lipofectamine 2000, and 25 μl solution was added into 96 well plate. The amounts of NDT polymers used in each well were 8, 4 or 2 μg, respectively, the amounts of Superfect were 15, 7.5 and 3.8 μg/well respectively, and the amounts of lipofectamine 2000 were 2.5, 1.25 and 0.63 μg/well respectively. […] The transfection efficiency and cytotoxicity were analyzed by fluorescent microscope and MTT assay (FIG. 33).
The cytotoxicities of transfection reagents on mammalian cells were evaluated using 3-[4,5 dimethylthiazol-2-yl]-2,5-diphenyltetrazolium bromide (MTT) method. […] The absorbance of the solution was measured at 570 nm. Cell viabilities was calculated using the equation: Viability (%)={Abs570 (sample)/Abs570 (control)}×100 (FIG. 31).

293 cells [2] = test: Effect of membrane disturbing peptide on PLL-laminin mediated gene transfer; type: cell-based; settings: membrane disturbing peptide in PLL-laminin based transfectable surface, 96-well (FIG. 28)

## NC(=O)CC[C@H](N)C(=O)O [glutamine, Glutamine]
293 cells [1]; cytoreductive reagent added to transfectable surface, with versus without glutamine (FIG. 32)
  effect on transfection cytotoxicity: significantly improved transfection cytotoxicity

## RRRQGTWLNPGFPPQSCGYATVTDARRR (Chemically synthesized peptide corresponding to viral envelope protein VSVG) [VSVG peptide]
293 cells [2]
  effect on transfection efficiency: significantly enhance transfection efficiency

## laminin
293 cells [1]; cell attaching reagent in transfection reagents-gelatin surface, with versus without laminin (FIG. 33)
  effect on cytotoxicity caused by transfection reagents and procedures: significantly improved cytotoxicity
